From patent US20230110378A1, “MONOBACTAM COMPOUND AND USE THEREOF” (EVOPOINT BIOSCIENCES CO., LTD., priority 2019, published 2023)
≈ marks a conversion by molar mass, not a printed value.

Legend:
Assay in all cases: Minimum inhibitory concentration (broth microdilution, CLSI)
Type in all cases: cell-based
[1] = system: Escherichia coli HDBEC 30048; details: HDBEC30048
Protocol: (§1) 103 bacterial strains used for the minimum inhibitory concentration test were frozen in a −80° C. ULT freezer and thawed 2 days before use. A small amount of frozen microorganism bacteria were scraped using a sterile inoculating loop, streaked onto a suitable solid culture dish for inoculation, and then cultured for about 20 h at 35 t 2° C. in a normal incubator. • Proteus mirabilis HDBPM 40: MA, normal atmospheric environment • The remaining 102 strains of bacteria: TSA, normal atmospheric environment
(§2) 5-10 colonies with similar morphology were picked from the culture dish using a sterile inoculating loop and then re-streaked onto a corresponding solid culture dish. Then the dish was incubated in a normal incubator at 35 t 2° C. for about 20 h.
(§3) 5-10 single microbial colonies were picked from the solid culture dish, resuspended in 500 μL of sterile normal saline (0.9% NaCl), and adjusted to an OD600 of about 0.15 with a spectrophotometer.
(§4) The bacteria were then diluted 300-fold with 1.02×CAMHB to an inoculation concentration of 2×10^5 CFU/mL.
(§5) • There were a total of 3 assay plate patterns, one of which was used for each assay. • 8 rows of the assay plate (rows A-H) were for 8 test compounds, respectively. The highest test concentration of the compounds was 16, 32 or 64 μg/mL, and each compound was diluted 2-fold. • Growth control (GC): a medium containing microbial inoculum (1.02×CAMHB) and dimethylsulfoxide (DMSO) but no compound.
(§6) The test and reference compounds were dissolved in DMSO or H2O to prepare 6.4 mg/mL stock solutions. The stock solutions were diluted to prepare standby solutions with certain concentrations, and the volumes of the standby solutions were determined according to the experimental design. Corresponding volumes of the standby solutions were transferred to the starting wells of a dilution plate (A1-H1), and half the starting-well volume of DMSO to the other wells. Each compound was diluted 2-fold sequentially from column 1 to column 11 (e.g., transferring 30 μL of DMSO to columns 2-12 first, then pipetting 30 μL of the compounds from column 1 to column 2 and mixing them well, then pipetting 30 μL of the compounds from column 2 to column 3 and mixing them well, then pipetting 30 μL of the compounds from column 3 to column 4 and mixing them well, and so on to column 11).
(§7) 1 or 2 μL of the compounds and DMSO were transferred from the compound plate to corresponding wells of the assay plates.
(§8) 98 μL of corresponding bacterial inocula were added to the assay plates.
(§9) After addition, the assay plates were covered with sterile covers. The mixtures in the assay plates were centrifuged in a centrifuge at 800 rpm for 30 s, mixed well on a microplate shaker at 400 rpm for 1 min, and incubated in a normal incubator at 35 t 2° C. for 20-24 h.
(§10) The assay plates were placed on a plate reading device, and the speculum was adjusted to observe and record the growth condition of bacteria in each well. In the mean time, each assay plate was photographed with QCount system.
(§11) The minimum inhibitory concentration of each compound was recorded by reference to guidelines from the Clinical and Laboratory Standards Institute.
(§12) The minimum inhibitory concentrations of the compounds against experimental strains were tested in this study by reference to the medium microdilution method as indicated by the Clinical and Laboratory Standards Institute. Compounds were diluted two-fold in 96-well plates from the highest detection concentration of 16, 32 or 64 μg/mL. The bacterial inocula in the assay plates were thawed from corresponding medium plates and diluted in 1.02×CAMHB, while growth controls (GC wells) were set up in the assay plates. The minimum inhibitory concentration of each compound against different bacteria was observed and recorded after the assay plates were incubated in a normal incubator at 35 t 2° C. for about 20 h. The minimum inhibitory concentration values for the different compounds are listed in the list below.

[2] = system: Klebsiella pneumoniae HDBKP 9153; details: HDBKP9153
Protocol: as §1, §2, §3, §4, §5, §6, §7, §8, §9, §10, §11, §12

[3] = system: Klebsiella pneumoniae HDBKP 30006; details: HDBKP30006
Protocol: as §1, §2, §3, §4, §5, §6, §7, §8, §9, §10, §11, §12

[4] = system: Proteus mirabilis HDBPM 40; details: HDBPM40
Protocol: as §1, §2, §3, §4, §5, §6, §7, §8, §9, §10, §11, §12

[5] = system: Escherichia coli HDBEC 30016; details: HDBEC30016
Protocol: as §1, §2, §3, §4, §5, §6, §7, §8, §9, §10, §11, §12

[6] = system: Escherichia coli HDBEC 30008; details: HDBEC30008
Protocol: as §1, §2, §3, §4, §5, §6, §7, §8, §9, §10, §11, §12

[7] = system: Klebsiella pneumoniae HDBKP 9249; details: HDBKP9249
Protocol: as §1, §2, §3, §4, §5, §6, §7, §8, §9, §10, §11, §12

[8] = system: Enterobacter cloacae HDBECL 30030; details: HDBECL30030
Protocol: as §1, §2, §3, §4, §5, §6, §7, §8, §9, §10, §11, §12

[9] = system: Pseudomonas aeruginosa HDBPA 5679; details: HDBPA5679
Protocol: as §1, §2, §3, §4, §5, §6, §7, §8, §9, §10, §11, §12

SMILES	MIC [1]	MIC [2]	MIC [3]	MIC [4]	MIC [5]	MIC [6]	MIC [7]	MIC [8]	MIC [9]
CC(C)(O/N=C(\C(=O)N[C@@H]1C(=O)N(S(=O)(=O)O)[C@@H]1CNC(=O)c1cc([C@@H]2CCNC2)no1)c1csc(N)n1)C(=O)O [Compound I-5]	> 16 µg/mL	> 16 µg/mL	> 16 µg/mL	< 4 µg/mL	> 16 µg/mL	< 4 µg/mL	< 4 µg/mL	< 4 µg/mL	> 16 µg/mL
C[n+]1cc(-c2ncc(C(=O)NC[C@@H]3[C@H](NC(=O)/C(=N\OC(C)(C)C(=O)O)c4nsc(N)n4)C(=O)N3S(=O)(=O)O)s2)cn1CC(N)CN (stereo partly drawn) [Compound I-15]	> 16 µg/mL	> 16 µg/mL	> 16 µg/mL	< 4 µg/mL	> 16 µg/mL	4 to 8 µg/mL	> 16 µg/mL	4 to 8 µg/mL	> 16 µg/mL
CC(C)(O/N=C(\C(=O)N[C@@H]1C(=O)N(S(=O)(=O)O)[C@@H]1CNC(=O)c1cc([C@@H]2CCN(CCNc3ccc(O)c(O)c3Cl)C2)no1)c1csc(N)n1)C(=O)O [Compound I-36]	< 4 µg/mL	< 4 µg/mL	8 to 16 µg/mL (≈ 10 to 20 µM)	< 4 µg/mL	4 to 8 µg/mL (≈ 5 to 10 µM)	< 4 µg/mL	< 4 µg/mL	< 4 µg/mL	< 4 µg/mL
C[n+]1cc(-c2ncc(C(=O)NC[C@@H]3[C@H](NC(=O)/C(=N\OC(C)(C)C(=O)O)c4csc(N)n4)C(=O)N3S(=O)(=O)O)s2)cn1CC(N)CN (stereo partly drawn) [Compound I-9]	> 16 µg/mL	8 to 16 µg/mL	4 to 8 µg/mL	< 4 µg/mL	> 16 µg/mL	< 4 µg/mL	< 4 µg/mL	< 4 µg/mL	> 16 µg/mL
CC(C)(O/N=C(\C(=O)N[C@H]1C(=O)N(S(=O)(=O)O)[C@H]1CNC(=O)c1cc([C@@H]2CCN(C(=O)c3cc(Cl)c(O)c(O)c3Cl)C2)no1)c1csc(N)n1)C(=O)O [Compound I-19]	< 4 µg/mL	< 4 µg/mL	> 16 µg/mL	< 4 µg/mL	4 to 8 µg/mL (≈ 4.88 to 9.76 µM)	< 4 µg/mL	8 to 16 µg/mL (≈ 9.76 to 19.5 µM)	< 4 µg/mL	4 to 8 µg/mL (≈ 4.88 to 9.76 µM)
C[n+]1cc(-c2cc(C(=O)NC[C@@H]3[C@H](NC(=O)/C(=N\OC(C)(C)C(=O)O)c4csc(N)n4)C(=O)N3S(=O)(=O)O)on2)cn1CCCN [Compound I-1]	> 16 µg/mL	> 16 µg/mL	4 to 8 µg/mL	< 4 µg/mL	> 16 µg/mL	4 to 8 µg/mL	< 4 µg/mL	< 4 µg/mL	> 16 µg/mL
C[n+]1cc(-c2ncc(C(=O)NC[C@@H]3[C@H](NC(=O)/C(=N\OC(C)(C)C(=O)O)c4csc(N)n4)C(=O)N3S(=O)(=O)O)s2)cn1CCCN [Compound I-2]	> 16 µg/mL	< 4 µg/mL	< 4 µg/mL	< 4 µg/mL	> 16 µg/mL	< 4 µg/mL	< 4 µg/mL	< 4 µg/mL	> 16 µg/mL
Nc1nc(/C(=N/OC2(C(=O)O)CC2)C(=O)N[C@H]2C(=O)N(S(=O)(=O)O)[C@H]2CNC(=O)c2cc([C@@H]3CCN(C(=O)c4cc(=O)c(O)cn4O)C3)no2)cs1 [Compound I-17]	< 4 µg/mL	< 4 µg/mL	> 16 µg/mL	< 4 µg/mL	4 to 8 µg/mL (≈ 5.22 to 10.4 µM)	< 4 µg/mL	< 4 µg/mL	< 4 µg/mL	< 4 µg/mL

Next, values leading:

MIC [1]	MIC [2]	MIC [3]	MIC [4]	MIC [5]	MIC [6]	MIC [7]	MIC [8]	MIC [9]	SMILES
< 4 µg/mL	< 4 µg/mL	8 to 16 µg/mL (≈ 9.87 to 19.7 µM)	< 4 µg/mL	< 4 µg/mL	< 4 µg/mL	8 to 16 µg/mL (≈ 9.87 to 19.7 µM)	< 4 µg/mL	< 4 µg/mL	CC(C)(O/N=C(\C(=O)N[C@@H]1C(=O)N(S(=O)(=O)O)[C@@H]1CNC(=O)c1cc([C@@H]2CCN(CCNC(=O)c3cc(=O)c(O)cn3O)C2)no1)c1csc(N)n1)C(=O)O [Compound I-40]
< 4 µg/mL	< 4 µg/mL	8 to 16 µg/mL (≈ 9.39 to 18.8 µM)	< 4 µg/mL	< 4 µg/mL	< 4 µg/mL	8 to 16 µg/mL (≈ 9.39 to 18.8 µM)	< 4 µg/mL	< 4 µg/mL	Cc1c(O)c(=O)cc(C(=O)NCCCn2cc(-c3ncc(C(=O)NC[C@@H]4[C@H](NC(=O)/C(=N\OC(C)(C)C(=O)O)c5csc(N)n5)C(=O)N4S(=O)(=O)O)s3)cn2)n1O [Compound I-46]
< 4 µg/mL	< 4 µg/mL	> 16 µg/mL	< 4 µg/mL	> 16 µg/mL	< 4 µg/mL	> 16 µg/mL	< 4 µg/mL	< 4 µg/mL	CC(C)(O/N=C(\C(=O)N[C@@H]1C(=O)N(S(=O)(=O)O)[C@@H]1CNC(=O)c1cc([C@@H]2CCN(C(=O)c3cc(=O)c(O)cn3O)C2)no1)c1nsc(N)n1)C(=O)O [Compound I-14]
< 4 µg/mL	< 4 µg/mL	> 16 µg/mL	< 4 µg/mL	4 to 8 µg/mL (≈ 5.22 to 10.4 µM)	< 4 µg/mL	4 to 8 µg/mL (≈ 5.22 to 10.4 µM)	< 4 µg/mL	< 4 µg/mL	Nc1nc(/C(=N/OC2(C(=O)O)CC2)C(=O)N[C@@H]2C(=O)N(S(=O)(=O)O)[C@@H]2CNC(=O)c2cc([C@@H]3CCN(C(=O)c4cc(=O)c(O)cn4O)C3)no2)cs1 [Compound I-22]
< 4 µg/mL	< 4 µg/mL	< 4 µg/mL	< 4 µg/mL	< 4 µg/mL	< 4 µg/mL	4 to 8 µg/mL (≈ 4.74 to 9.48 µM)	< 4 µg/mL	< 4 µg/mL	CC(C)(O/N=C(\C(=O)N[C@@H]1C(=O)N(S(=O)(=O)O)[C@@H]1CNC(=O)c1cnc([C@@H]2CCN(CCNC(=O)c3ccc(O)c(O)c3Cl)C2)s1)c1csc(N)n1)C(=O)O [Compound I-41]
